Data reported in patent US9849174B2, “Methods and compositions related to immunogenic fibrils” (The Board of Regents of the University of Texas System, priority 2009, dated 2017).
Entries after “also recorded” stand apart in the source; their conditions may differ.

Legend:
CFSE labeled OTII cells = test: Adoptive transfer of CFSE-labeled OTII T cells and immunization; type: in vivo, mice; conditions: 100 nmol s.c., five days after immunization, spleen and lymph nodes
Protocol: Antibody responses to self-assembled peptides are T cell-dependent. […] To determine the requirement for T cells, an adoptive T cell transfer assay was performed. Specifically, mice were injected with CFSE labeled […] cells, which express receptors for the H-2^b restricted OVA epitope. Antigen-mediated proliferation causes a decrease in the CFSE intensity which can be detected by flow cytometry.
Adoptive Transfer of T cells OTII transgenic mice on C57BL/6 background, whose T cells recognize the OVA peptide and carry a marker to distinguish them from naïve T cells from B6 mice (CD90.1 congenic). In vivo CD4+ T cell proliferation was analyzed after adoptive transfer into mice and immunization with the peptides. Briefly, splenocytes and lymph nodes of OTII+ C57BL/6 mice were processed into a single cell suspension and enriched for CD4+ T cells, by negative magnetic separation (Miltenyi Biotec). […] After staining, cells were washed twice with FACS buffer and samples were run on the LSR-II (BD Biosciences, NJ) flow cytometer and analyzed for evidence of proliferation as indicated by dilution of CFSE intensity using. FlowJo cytometry analysis software (Tree Star, OR) was used to analyze and quantify the results. […]

[1] = target: T1, streptavidin-conjugated gold particles (Streptomyces avidinii, UniProt P22629); test: Streptavidin-gold labelling of fibrils imaged by TEM; type: binding; conditions: 5 nm streptavidin-conjugated gold
T1 construct: purchased Sigma
From the text: The availability of the OVA epitope on the surface of O-Q11 nanofibers was confirmed by TEM and by ELISA. To label epitopes in TEM samples, an N-terminally biotinylated O-Q11 was synthesized with a single biotin tag directly adjacent to the OVA sequence. This biotinylated peptide produced fibrils that appeared morphologically similar to O-Q11 (FIG. 2D). Five-nanometer streptavidin-conjugated gold particles were then used to probe epitope availability on the fibril surface, with unmodified Q11 serving as a negative control. […] To confirm this finding and to quantify the availability of the entire epitope, ELISA was employed. Plates coated with OVA and O-Q11 peptides were probed with antisera from mice immunized with OVA, either with or without complete Freund's adjuvant (CFA).
Transmission Electron Microscopy. Peptides were dissolved in deionized water and mixed 6:1 with PBS to produce working peptide concentrations of 330 μM. After fibrillizing for 4h, peptides were applied to 400 mesh gold grids with carbon support films, negative-stained with 1% uranyl acetate, and imaged on a Tecnai F30 TEM. For gold staining, prior to negative-staining grids were placed upside-down on a droplet of blocking solution (0.2% acetylated BSA, 0.1% gelatin from cold water fish skin in PBS) for 5 min, then for 2 h on a droplet of 5 nm colloidal gold conjugated to streptavidin (Sigma). […]

[2] = test system: primary human endothelial cells; conditions: cited from earlier work
mice = conditions: mouse, in vivo; cited from earlier work
[3] = ranges: high and low values among three batches for each peptide
Protocol: Endotoxin levels of all formulations were tested using a Limulus Amebocyte Lystae (LAL) chromogenic end point assay (Lonza, USA).
To account for batch-to-batch variability three different sets of peptides were synthesized for immunizing mice.

C57BL/6 mice = test: Subcutaneous immunization of mice, serum antibody titers and isotypes by ELISA (Example 1); type: in vivo
Protocol: To investigate how fibrillization affected the immunogenicity of OVA, C57BL/6 mice were immunized subcutaneously with the different peptides and boosted with additional peptide at 28 days (see methods). Serum was collected seven days after the boost, and levels of various immunoglobulins were measured.
Immunizations. […] Stock solutions were then diluted in sterile, endotoxin-free PBS to working concentrations. […] CFA-adjuvanted groups received the same volume and total peptide dose, prepared by emulsifying peptide/PBS solutions 1:1 in CFA. […] CFA groups were boosted in incomplete Freund's adjuvant (IFA). Mice receiving mixtures of Q11 and OVA received 100 nmol of each peptide in the first injection and 50 nmol of each in the second. Seven days after the boost, the mice were sacrificed, and sera and spleens were harvested.
Determination of antibody titers. High-binding ELISA plates (eBioscience) were coated with either 20 μg/mL peptide in PBS or PBS alone (for uncoated background subtraction) overnight at 4° C. […] To determine titers for each antiserum, background absorbance values from uncoated wells were subtracted from coated wells, and net absorbances were compared to cutoff values. The cutoff consisted of the mean plus three times the standard deviation of the negative control group (mice receiving OVA without adjuvant) for each corresponding dilution. Any sample dilutions having absorbances above this cutoff value were considered positive readings. The titer was considered as the highest dilution for which it and all lower dilutions had positive readings. If no positive dilutions were present the titer was considered to be 10^2. […] Antibody isotypes were analyzed similarly using a mouse monoclonal antibody kit containing goat anti-mouse IgG1, IgG2a, IgG2b, IgG3, and IgM (Sigma).

mouse myocardium = conditions: in vivo; cited from earlier work
rat myocardium = conditions: in vivo; cited from earlier work

T1 sequence (P22629 25-183): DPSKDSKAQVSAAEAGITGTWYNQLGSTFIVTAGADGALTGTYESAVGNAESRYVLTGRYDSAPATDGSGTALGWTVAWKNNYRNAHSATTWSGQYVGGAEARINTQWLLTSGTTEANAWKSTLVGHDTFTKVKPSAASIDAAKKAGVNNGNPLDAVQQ

Row | Substance | Transferred cells that proliferated (shift in CFSE intensity) (CFSE labeled OTII cells) | Binding of streptavidin-gold to fibrils [1] | Cell death / cytotoxicity in primary cell cultures [2] | Antibody responses (mice) | Endotoxin [3] | Total IgG response (C57BL/6 mice; delivered in CFA) | Total IgG response (C57BL/6 mice; delivered with or without CFA) | Total IgG response (C57BL/6 mice; peptide in PBS without added adjuvant, s.c., boost day 28, serum 7 days after boost) | Tissue responses (mouse myocardium) | Tissue responses (rat myocardium)
1 | Ac-QQKFQFQFEQQ-NH2 [Peptide Q11, Ac-QQKFQFQFEQQ-Am] | negligible shift in CFSE intensity | negligible numbers of particles; also recorded: did not bind streptavidin-gold | did not induce cell death | little to no antibody responses | 0.024-0.098 EU/mL | non-immunogenic even in CFA | did not raise any detectable IgG | did not elicit a response | – | –
2 | n-RARADADARARADADA-c [RAD16-II] | – | – | – | – | – | – | – | – | Negligible tissue responses | Negligible tissue responses
